# Assays:
# [1] = Mineral-binding ability by retention time on hydroxyapatite HPLC column; details: pH = 6.8, 2 mL/min
# Method: B. […] The flow rate was 2 mL min^−1. […] Nucleoside mono-, di-, and triphosphates were recorded at a wavelength of 260 nm and zoledronate at a wavelength of 218 nm. The concentration of the eluted compounds was 0.3 mmol L^−1.
# [2] = Binding of bisphosphonate conjugates on hydroxyapatite powder (UV absorbency of supernatant); details: pH 7.0
# Method: A. To estimate the binding of BC on hydroxyapatite (mineral component of a bone) UV spectra of BC in buffer pH 7 were recorded before and after treatment with hydroxyapatite. To this end 10 μl of hydroxyapatite suspension in water was added to 1 ml of ˜10^−4 M solution of a BC in 0.1M Tris-HCl buffer, pH 7.0, 0.15 M NaCl and the mixture was intensively shaken for 10 minutes, and centrifuged for 5 minutes at 10,000 rpm in a microcentrifuge. The supernatant was separated and an absorbency spectrum of the supernatant was recorded.
# [3] = 1500 mM sodium phosphate buffer
Structure (SMILES),"Retention time on hydroxyapatite column [1, 3]",Retention time on hydroxyapatite column ([1]; 500 mM sodium phosphate buffer),% of bound compound [2],% of nonbound compound [2]
"O=P(O)(O)C(O)(Cn1ccnc1)P(=O)(O)O [Zoledronate, zoledronate]",17.35 min,,,
O=c1ccn([C@@H]2O[C@H](COP(=O)(O)OP(=O)(O)O)[C@@H](O)[C@H]2O)c(=O)[nH]1 [UDP],3.47 min,5.75 min,,
O=c1ccn([C@@H]2O[C@H](COP(=O)(O)OP(=O)(O)OP(=O)(O)O)[C@@H](O)[C@H]2O)c(=O)[nH]1 [UTP],3.5 min,,,
O=c1ccn([C@@H]2O[C@H](COP(=O)(O)O)[C@@H](O)[C@H]2O)c(=O)[nH]1 [UMP],3.42 min,4.25 min,,
"O=c1[nH]c(=O)n(COCCOP(=O)(O)OP(=O)(O)CP(=O)(O)O)cc1F [II, Anhydride of 1-(2′-hydroxyethoxymethyl)-5-fluorouracil-2′-phosphate and methylenediphosphonic acid]",,,87.26%,12.74%
"CC(O)(P(=O)(O)O)P(=O)(O)OP(=O)(O)OCC1OC(n2cc(F)c(=O)[nH]c2=O)C(O)C1O (stereo not drawn) [VI, anhydride of 5-Fluoro-uridine-5′-monophosphoric acid and 1-Hydroxyethylidene-1,1-diphosphonic acid]",6.00 min,17.72 min,69.66%,30.34%
